System: apple peel
Assay: Free amino acid content of apple peel via UPLC-MS/MS after AHAS inhibitor treatment
Assay type: in vivo, Malus x domestica Borkh.
Design: key to free asparagine content compared to control / free aspartate content compared to control / free cysteine content compared to control / free glutamate content compared to control / free glutamine content compared to control / free glycine content compared to control / free histidine content compared to control / free lysine content compared to control / free methionine content compared to control / free phenylalanine content compared to control / free serine content compared to control / free threonine content compared to control / free tryptophan content compared to control / free tyrosine content compared to control / free valine content compared to control / total free amino acid content compared to control / free alanine content compared to control / free arginine content compared to control: —: Dash indicates no significant difference between treatments
Conditions: for free alanine content compared to control / free arginine content compared to control / free asparagine content compared to control / free aspartate content compared to control / free cysteine content compared to control / free glutamate content compared to control / free glutamine content compared to control / free glycine content compared to control / free histidine content compared to control / free isoleucine content compared to control / free leucine content compared to control / free lysine content compared to control / free methionine content compared to control / free phenylalanine content compared to control / free serine content compared to control / free threonine content compared to control / free tryptophan content compared to control / free tyrosine content compared to control / free valine content compared to control / total free amino acid content compared to control: 1 mM daily
Method: Whole apple fruit, freshly harvested and at an early stage of ripening (‘ripening’), were held at room temperature (22° C.) and rubbed daily with 3 mL of a freshly made 1mM solution of the inhibitor rimsulfuron (N-((4,6-dimethoxypyrimidin-2-yl)aminocarbonyl)-3-(ethylsulfonyl)-2-pyridinesulfonamide, made from DuPont MATRIX® SG, 25% w/w active ingredient; 0.1% Tween 20) or water solution containing 0.1% Tween 20 before preparation with further treatments. Flowering quince fruit were smaller than the apple fruit and had 2 mL of the control and treatment solutions applied daily at 22° C. ‘Gala’, ‘Empire’, and ‘Jonagold’ apple fruit were treated for four, nine, and seven days before further preparation, respectively. Flowering quince fruit were treated for six days before analysis. Headspace volatile emissions were monitored for three or four representative fruits during the incubation/treatment period to determine appropriate times for further treatments. During method testing, 1 mM solutions of the imidazolinone imazamox was also assessed with apple fruit (2-[4,5-dihydro-4-methyl-4-(1-methylethyl)-5-oxo-1H-imidazol-2-yl]-5-(methoxymethyl)-3-pyridinecarboxylic acid, made from RAPTOR®, 12.1% w/w active ingredient; 0.1% Tween 20).
After volatile analysis, apple peel disks, collected peel of flowering quince, and ‘Valery’ pulp section samples were held at −80° C. for further amino acid analysis.
Frozen samples were ground to a powder in liquid nitrogen-chilled mortar and pestles. About 500 mg of tissue was vortexed for 10 sec in 2 mL of room temperature (22° C.) extraction solution (1:1:1 water:acetonitrile:ethanol, v/v/v) spiked with 2 nmoles of U-^13C,^15N labeled amino acids (MilliporeSigma) as internal standards and heated for 15 min in a 65° C. water bath. Extracts were briefly chilled on ice before centrifugation at 4400×g for 15 min at 4° C. The supernatant was filtered by centrifugation (0.2 μm nylon centrifugal filter; Costar, Corning) at 21000×g for 5 min at room temperature. 10 μL of the filtrate was transferred to an autosampler vial and diluted 100-fold with 990 μL of 10.1 mM perfluorohexanoic acid (PFHA) spiked with […] of internal standard. Thus the final concentration of internal standard was ˜2 μM.
An amino acid standard series was prepared from a premade mixture (MilliporeSigma, AAS18) that contained equal molar amounts of cystine and all 20 proteinogenic amino acids save for tryptophan, asparagine, glutamine, and cysteine. An equal molar mixture of tryptophan, asparagine, glutamine, and cysteine was subsequently prepared. To avoid dilution errors or artefacts from differing buffers, these amino acid stocks were aliquoted and desiccated such that a five-part standard series ranging from 250 μM to 25 nM would be produced upon resuscitation with 10 μL of spiked extraction buffer and 990 μL spiked PFHA solution.
Samples and amino acids were held overnight at −20° C. before analysis. Amino acids were analyzed with a Xevo TQ-S Micro UPLC (H-Class)-MS/MS (Waters) at the Michigan State University Mass Spectrometry and Metabolomics Core. Conditions were as follows. HPLC column: Acquirt UPLC HSS T3, 2.1×100 mm, 1.7 μm particle size (Waters), with a 0.2 μm pre-column filter (Waters). Mobile phase: A) 10 mM PFHA in water, B) acetonitrile. LC gradient: linear gradient, slope setting=6, flow rate=0.3 mL·min^−1, step 1) 0 min, 100% A, 0% B, 2) 1 min, 100% A, 0% B, 3) 8 min, 35% A, 65% B, 4) 8.01 min, 10% A, 90% B, 5) 9 min, 10% A, 90% B, 6) 9.01 min, 100% A, 0% B, 7) 13 min, 100% A, 0% B. Column temp: 40° C. Autosampler temp: 10° C. Injection volume: 10 μL. Tune parameters: electrospray ionization, standard ESI probe, capillary voltage=+1.0 kV, source temp=120° C., desolvation temp=350° C., desolvation gas=800 L·hr^−1, cone gas=40 L·hr^−1. MS collection was split into three phases and were adjusted after checking the retention time of several samples; however proline was missed for apple and flowering quince samples. […]

[1] = ripening Empire apple peel, nine days
[2] = ripening Gala apple peel, four days
[3] = ripening Jonagold apple peel, seven days

CCS(=O)(=O)c1cccnc1S(=O)(=O)NC(=O)Nc1nc(OC)cc(OC)n1 [rimsulfuron, N-((4,6-dimethoxypyrimidin-2-yl)aminocarbonyl)-3-(ethylsulfonyl)-2-pyridinesulfonamide]
free alanine content compared to control [1]: —
free arginine content compared to control [1]: —
free asparagine content compared to control [1]: —
free aspartate content compared to control [1]: —
free cysteine content compared to control [1]: 261.5 ± 32.5%
free glutamate content compared to control [1]: —
free glutamine content compared to control [1]: —
free glycine content compared to control [1]: —
free histidine content compared to control [1]: —
free isoleucine content compared to control [1]: 3.3 ± 0.7%
free leucine content compared to control [1]: 422.8 ± 100.1%
free lysine content compared to control [1]: —
free methionine content compared to control [1]: 212.7 ± 26.8%
free phenylalanine content compared to control [1]: —
free serine content compared to control [1]: —
free threonine content compared to control [1]: —
free tryptophan content compared to control [1]: —
free tyrosine content compared to control [1]: —
free valine content compared to control [1]: —
total free amino acid content compared to control [1]: —
free alanine content compared to control [2]: 273.4 ± 27.4%
free arginine content compared to control [2]: —
free asparagine content compared to control [2]: —
free aspartate content compared to control [2]: 231.8 ± 18.0%
free cysteine content compared to control [2]: —
free glutamate content compared to control [2]: 146.3 ± 5.6%
free glutamine content compared to control [2]: 250.7 ± 33.5%
free glycine content compared to control [2]: —
free histidine content compared to control [2]: —
free isoleucine content compared to control [2]: 16.4 ± 6.3%
free leucine content compared to control [2]: 214.4 ± 42.2%
free lysine content compared to control [2]: —
free methionine content compared to control [2]: —
free phenylalanine content compared to control [2]: —
free serine content compared to control [2]: 300.1 ± 27.7%
free threonine content compared to control [2]: 182.3 ± 14.2%
free tryptophan content compared to control [2]: —
free tyrosine content compared to control [2]: —
free valine content compared to control [2]: —
total free amino acid content compared to control [2]: 191.5 ± 20.4%
valine following treatment (ripening Gala, Empire, Jonagold peels): unaffected
free alanine content compared to control [3]: —
free arginine content compared to control [3]: —
free asparagine content compared to control [3]: —
free aspartate content compared to control [3]: —
free cysteine content compared to control [3]: 410.6 ± 49.6%
free glutamate content compared to control [3]: —
free glutamine content compared to control [3]: —
free glycine content compared to control [3]: —
free histidine content compared to control [3]: —
free isoleucine content compared to control [3]: 4.1 ± 1.3%
free leucine content compared to control [3]: 393.2 ± 74.4%
free lysine content compared to control [3]: —
free methionine content compared to control [3]: 218.3 ± 31.0%
free phenylalanine content compared to control [3]: —
free serine content compared to control [3]: 191.9 ± 32.1%
free threonine content compared to control [3]: —
free tryptophan content compared to control [3]: —
free tyrosine content compared to control [3]: —
free valine content compared to control [3]: —
total free amino acid content compared to control [3]: —
reduction of isoleucine in the peels (ripening fruit of the three cultivars (Gala, Empire, Jonagold), on average): 92.1%
increase of leucine content (three ripening cultivars, on average): 3.4 fold

— US20250382556A1, “MODULATION OF THE BRANCHED-CHAIN METABOLITE CONTENT OF FRUITS AND VEGETABLES” (BOARD OF TRUSTEES OF MICHIGAN STATE UNIVERSITY, priority 2024, published 2025)
